From paper PMC5218480 (PLoS ONE, 2017)

System: MV-4-11 and HL-60 cells
Experiment: Quantitative real time PCR (qPCR) of CDKN1A, CDKN1C, GATA2, HES1
Type: cell-based, human
Conditions: MV-4-11 and HL-60, 48 hours
Procedure: RNA isolations were performed on a Qiacube (Qiagen) using the RNeasy Micro Kit (Qiagen) according to manufacturer’s protocol. RNA was converted to cDNA using the High Capacity RNA-to-cDNA Kit (Life Technologies) and qPCR performed using the Taqman Gene Expression Max Mix according to manufacturer’s protocol (Applied Bioscience). The following ThermoFisher taqman probes were used: GATA2 (Hs01060665_g1), GAPDH (Hs0275899_g1), ACTB (Hs00231119_m1), CDKN1A (Hs00355782_m1), CDKN1C (Hs00175938_m1), HES1 (Hs00172878_m1).

Row | Compound | expression of CDKN1A, CDKN1C, GATA2 and HES1 (qPCR)
1 | Nc1ccc(-c2cccs2)cc1NC(=O)c1ccc2c(c1)cc(C1CC1)n2CCN1CCOCC1 [ACY-1035] | up-regulated
2 | Nc1ncn([C@@H]2O[C@H](CO)[C@@H](O)[C@H]2O)c(=O)n1 [azacitidine] | up-regulated
